In publication PMC2847595 (Nuclear medicine and biology, 2010):

Experiments:
[1] = tested on: P-glycoprotein (P-gp); details: cited from earlier work
[2] = Ex vivo radio-HPLC analysis of mouse plasma after radiotracer injection; assay type: in vivo; details: for plasma concentration: 30 min after radiotracer injection; for increase of plasma concentration by ketoconazole pretreatment: both wild-type and knockout mice, ketoconazole 50 mg/kg i.p.
[3] = Ex vivo radio-HPLC analysis of mouse whole brain after radiotracer injection; assay type: in vivo; details: for increase of brain concentration by ketoconazole pretreatment: ketoconazole 50 mg/kg i.p.; for brain concentration: 30 min after radiotracer injection
[4] = tested on: CYP3A4; details: cited from earlier work
[5] = tested on: cDNA-expressed CYP3A4; details: in vitro; cited from earlier work
[6] = P-gp knockout mice, baseline (no ketoconazole)
[7] = P-gp knockout mice, ketoconazole 50 mg/kg i.p. pretreatment
[8] = wild-type mice, baseline (no ketoconazole)
[9] = wild-type mice, ketoconazole 50 mg/kg i.p. pretreatment
[10] = P-gp knockout mice, after [11C]loperamide
[11] = wild-type mice, after [11C]loperamide

| SMILES | P-gp substrate [1] | plasma concentration [2, 6] | plasma concentration [2, 7] | increase of plasma concentration by ketoconazole pretreatment [2] | plasma concentration [2, 8] | plasma concentration [2, 9] | increase of brain concentration by ketoconazole pretreatment [3, 10] | brain concentration ([3]; P-gp knockout mice, baseline) | brain concentration [3, 7] | effect of ketoconazole pretreatment on brain concentration [3, 11] | brain concentration ([3]; wild-type mice, baseline) | brain concentration [3, 9] | Ki [4] | inhibition of the N-demethylation of loperamide [5] | effect of ketoconazole pretreatment on brain concentration ([3]; either knockout or wild-type mice, after [11C]dLop) |
| --- | --- | --- | --- | --- | --- | --- | --- | --- | --- | --- | --- | --- | --- | --- | --- |
| CN(C)C(=O)C(CCN1CCC(O)(c2ccc(Cl)cc2)CC1)(c1ccccc1)c1ccccc1 [loperamide, reference compound] | avid substrate for P-gp |  |  |  |  |  |  |  |  |  |  |  |  |  |  |
| CN([11CH3])C(=O)C(CCN1CCC(O)(c2ccc(Cl)cc2)CC1)(c1ccccc1)c1ccccc1 [[^11C]loperamide] [[N-methyl-^11C]loperamide] |  | 7.37 ± 4.55 % SUV | 17.1± 9.0 % SUV | about two-fold | 10.3 ± 2.1 % SUV | 17.6 ± 5.9 % SUV | about two-fold | 20.4 ± 3.2 % SUV | 43.9 ± 14.0 % SUV | no effect | 2.86 ± 0.97 % SUV | 2.9± 0.7 % SUV |  |  |  |
| CC(=O)N1CCN(c2ccc(OCC3COC(Cn4ccnc4)(c4ccc(Cl)cc4Cl)O3)cc2)CC1 (stereo not drawn) [ketoconazole] |  |  |  |  |  |  |  |  |  |  |  |  | […] | 90% |  |
| CN([11CH3])C(=O)C(CCN1CCC(O)(c2ccc(Cl)cc2)CC1)(c1ccccc1)c1ccccc1 [[^11C]dLop] [[N-methyl-^11C]N-desmethyl-loperamide] | avid substrate for P-gp | 2.26 ± 0.54 % SUV | 3.4 ± 0.4 % SUV | about two-fold | 1.36 ± 0.18 % SUV | 3.3 ± 0.4 % SUV | two-fold | 37.1 ± 7.3 % SUV | 37.9 ± 6.7 % SUV | did not increase | 1.93 ± 0.52 % SUV | 2.2 ± 0.5 % SUV |  |  | little effect |
